53 compounds from patent US20240246980A1, “MODULATORS OF MAS-RELATED G-PROTEIN RECEPTOR D AND RELATED PRODUCTS AND METHODS” (Escient Pharmaceuticals, Inc., priority 2022, published 2024) can be followed below.

Structures are written as SMILES.

The target of the test is human MRGPRD (Homo sapiens, UniProt Q8TDS7). Briefly: MRGPRD antagonist activity, IP-One HTRF assay in CHO cells stably expressing human MRGPRD (versus 100 μM β-Alanine agonist). It is filed as cell-based. On the procedure:
Chinese Hamster Ovary (CHO) cells stably expressing human MRGPRD (Eurofins, San Diego CA) were plated in a 384-well plate at 20,000 cells per well in 12 μL of Optimem (Fisher Scientific 11-058-021). Plates were kept in the incubator at 37° C. overnight. Antagonists were solubilized at a concentration of 10 mM in DMSO, and the agonists were solubilized to stock concentrations of either 50 mM in H2O (β-Alanine) or 10 mM in DMSO (all others) and then diluted in assay buffer (final concentrations of 5.7 mM Tris-HCl, 43 mM NaCl, 50 mM LiCl, pH=8). The concentration of DMSO was normalized across the plate. Antagonists were added to the plate using a Tecan D300 Digital Dispenser at nanoliter/picoliter volumes and 2 μL of agonists in assay buffer were added to each well for a final assay volume of 14 μL. Plates were covered and incubated for 1 h at 37° C. and then for 1 h at room temperature. IP-1 standards and HTRF detection reagents were added according to an IP-One-Gq Kit purchased from Cisbio (part number 62IPAPEJ) and incubated in the dark for 1 h at room temperature. Assay plates were read on either a Molecular Devices SpectraMax iD5 plate reader or a BMG ClarioStar plate reader. The HTRF ratio was calculated form the raw data and graphed using GraphPad Prism to calculate IC50 values. Data are expressed as average IC50 values and average percent antagonism calculated as a percent of the maximum efficacy response. For these studies, the variability of the data was assessed by determining the standard error of mean (SEM).
The activity ranges are denoted as follows: “+++++” denotes antagonist activity <100 nM; “++++” denotes antagonist activity between 100 and 500 nM; “+++” denotes activity between 500 and 1000 nM; “++” denotes activity between 1000 and 3000 nM; and “+” denotes activity >3000 nM.
(Time-resolved FRET reads energy transfer from a long-lived donor to a nearby acceptor.)

Sequence of human MRGPRD (Q8TDS7 whole entry): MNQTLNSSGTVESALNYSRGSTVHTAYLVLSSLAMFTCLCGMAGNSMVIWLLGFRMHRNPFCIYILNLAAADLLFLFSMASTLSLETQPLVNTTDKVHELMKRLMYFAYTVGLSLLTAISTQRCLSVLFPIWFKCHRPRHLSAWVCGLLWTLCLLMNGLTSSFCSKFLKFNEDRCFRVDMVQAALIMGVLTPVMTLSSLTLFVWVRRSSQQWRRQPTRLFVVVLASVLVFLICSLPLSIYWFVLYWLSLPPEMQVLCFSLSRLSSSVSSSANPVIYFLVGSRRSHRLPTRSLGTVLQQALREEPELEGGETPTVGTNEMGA

The IC50 is the point on the concentration scale where inhibition reaches its midpoint. Low values mean greater potency, high ones weaker potency. Compound `COc1cccc(-c2nc([C@@H]3CCCN(C(=O)Nc4ccc(N(C)C)c(F)c4)C3)n3ccccc23)c1` [Compound 1-6] showed an IC50 below 100 nM.
Compound `COc1cccc(-c2nc(C3CCCN(C(=O)Nc4cccc(C)c4)C3)n3ccccc23)c1` (centres unmarked) [Compound 3-2] gave an IC50 of 100 to 500 nM.
Then `COc1cccc(-c2nc(C3CCCN(C(=O)N(C)c4ccccc4)C3)n3ccccc23)c1` (centres unmarked) [Compound 5-1], with 1000 to 3000 nM.
On to `COc1cccc(-c2nc([C@@H]3CCCN(C(=O)NCCc4ccnn4C)C3)n3ccccc23)c1` [Compound 10-25], for which the IC50 was in the range of 100 to 500 nM.
In turn, `COc1cccc(-c2nc([C@@H]3CCCN(C(=O)NC4CCN(C)CC4)C3)n3ccccc23)c1` [Compound 5-64] came in with an IC50 of 500 to 1000 nM.
`COc1cccc(-c2nc([C@H]3CCCN(S(=O)(=O)c4cccc(F)c4)C3)n3ccccc23)c1` [Compound 16-10] returned an IC50 of 1000 to 3000 nM.
Then `COc1cccc(-c2nc(C3CCN(C(=O)Nc4cccc(N(C)C)c4)CC3)n3ccccc23)c1` [Compound 5-8], with 1000 to 3000 nM; and `COc1cccc(-c2nc(C3CCCN(C(=O)Nc4ccccc4F)C3)n3cc(OC)ccc23)c1` (centres unmarked) [Compound 19-3, N-(2-fluorophenyl)-3-(6-methoxy-1-(3-methoxyphenyl)imidazo[1,5-a]pyridin-3-yl)piperidine-1-carboxamide], with 1000 to 3000 nM; and `COc1cccc(-c2nc(C3CCCN(C(=O)Nc4ccccc4F)C3)n3c(OC)cccc23)c1` (centres unmarked) [Compound 13-1, N-(2-fluorophenyl)-3-(5-methoxy-1-(3-methoxyphenyl)imidazo[1,5-a]pyridin-3-yl)piperidine-1-carboxamide], with 100 to 500 nM.
Then `CN(C)c1ccc(NC(=O)N2CCC[C@@H](c3nc(-c4cccc(O)c4)c4ccccn34)C2)cc1` [Compound 10-5], with 500 to 1000 nM; and `COc1cccc(-c2nc([C@@H]3CCCN(C(=O)Nc4cccc(C)c4)C3)n3ccccc23)c1` [Compound 1-13], with 100 to 500 nM.
Then `COc1cccc(-c2nc(C3CCCN(C(=O)Nc4ccccc4N(C)C)C3)n3ccccc23)c1` (centres unmarked) [Compound 4-3], with 500 to 1000 nM; and `COc1cccc(-c2nc(C3CCCN(C(=O)Nc4cccc(F)c4)C3)n3ccccc23)c1` (centres unmarked) [Compound 3-3], with 100 to 500 nM; and `COc1cccc(-c2nc([C@@H]3CCCN(C(=O)Nc4ccccc4C(F)(F)F)C3)n3ccccc23)c1` [Compound 1-15], with 100 to 500 nM.
The compound `O=C(Nc1ccccc1F)N1CCCC(c2nc(-c3ccccc3F)c3ccccn23)C1` (centres unmarked) [Compound 11-2] registered an IC50 of 1000 to 3000 nM.
Regarding `COc1cccc(-c2nc(-c3ccc(C(=O)Nc4ccc(N(C)C)cc4)s3)n3ccccc23)c1` [Compound 25-1, N-(4-(dimethylamino)phenyl)-5-(1-(3-methoxyphenyl)imidazo[1,5-a]pyridin-3-yl)thiophene-2-carboxamide], the IC50 was in the range of 1000 to 3000 nM.
Then `COc1cccc(-c2nc([C@@H]3CCCN(C(=O)Cc4cccc(F)c4)C3)n3ccccc23)c1` [Compound 12-13], with 100 to 500 nM; and `CCc1ccccc1-c1nc([C@@H]2CCCN(C(=O)Nc3ccc(N(C)C)cc3)C2)n2ccccc12` [Compound 10-21], with 100 to 500 nM.
Then `COc1cccc(-c2nc([C@@H]3CCCN(C(=O)Nc4onc(C)c4C)C3)n3ccccc23)c1` [Compound 5-50], with below 100 nM; and `CC(=O)c1ccc(-c2nc([C@@H]3CCCN(C(=O)Nc4ccc(N(C)C)cc4)C3)n3ccccc23)s1` [Compound 10-57], with 500 to 1000 nM; and `COc1ccccc1-c1nc([C@@H]2CCCN(C(=O)Nc3ccc(N(C)C)cc3)C2)n2ccccc12` [Compound 10-37], with 500 to 1000 nM.
`COc1cccc(-c2nc([C@@H]3CCCN(C(=O)Nc4ccc(N5CCCC5)cc4)C3)n3ccccc23)c1` [Compound 1-1] had an IC50 of 100 to 500 nM.
Compound `COc1cccc(-c2nc([C@@H]3CCCN(S(=O)(=O)Cc4ccc(F)cc4)C3)n3ccccc23)c1` [Compound 16-9] showed an IC50 below 100 nM.
`COc1cccc(-c2nc([C@@H]3CCCN(C(=O)Nc4ccc(C(F)(F)F)cc4)C3)n3ccccc23)c1` [Compound 5-23] registered an IC50 of 500 to 1000 nM.
`COc1cccc(-c2nc([C@@H]3CCCN(C(=O)NCCN4CCCCC4)C3)n3ccccc23)c1` [Compound 5-46] had an IC50 of 500 to 1000 nM.
The compound `COc1cccc(-c2nn(C3CCCN(C(=O)Nc4ccc(N(C)C)cc4)C3)c3ncccc23)c1` (centres unmarked) [Compound 9-1, N-(4-(dimethylamino)phenyl)-3-(3-(3-methoxyphenyl)-1H-pyrazolo[3,4-b]pyridin-1-yl)piperidine-1-carboxamide] displayed an IC50 below 100 nM.
With `CN(C)c1ccc(NC(=O)N2CCC[C@@H](c3nc(-c4cccc(C(F)F)c4)c4ccccn34)C2)cc1` [Compound 10-16], the IC50 lay in the range of 100 to 500 nM.
Under `Cc1noc(C)c1-c1nc([C@@H]2CCCN(C(=O)Nc3ccc(N(C)C)cc3)C2)n2ccccc12` [Compound 10-55] stands 500 to 1000 nM; under `CN(C)c1ccc(NC(=O)N2CCC[C@@H](c3nc(-c4ccccc4C(F)F)c4ccccn34)C2)cc1` [Compound 10-32], 1000 to 3000 nM; under `CN(C)c1ccc(NC(=O)N2CCC[C@@H](c3nc(C4CCCCC4)c4ccccn34)C2)cc1` [Compound 10-45], 100 to 500 nM.
Then `CN(C)c1ccc(NC(=O)N2CCC[C@@H](c3nc(-c4cccc(Cl)c4)c4ccccn34)C2)cc1` [Compound 10-22], with 500 to 1000 nM.
`CCc1ccc(NC(=O)N2CCCC(c3nc(-c4cccc(OC)c4)c4ccccn34)C2)cc1` (centres unmarked) [Compound 3-22] showed an IC50 of 100 to 500 nM.
Then `COc1cccc(-c2nc(C3CCCN(C(=O)Nc4cccc(N(C)C)c4)C3)n3ncccc23)c1` (centres unmarked) [Compound 5-19], with below 100 nM; and `COc1cccc(-c2nc([C@@H]3CCCN(C(=O)NCc4ccc(N(C)C)cc4)C3)n3ccccc23)c1` [Compound 5-17], with below 100 nM.
Under `COc1cccc(-c2nc(C3CCCN(C(=O)Nc4ccc(C#N)cc4)C3)n3ccccc23)c1` (centres unmarked) [Compound 4-4] stands 500 to 1000 nM.
Then `COc1cccc(-c2nc(C3CCCN(C(=O)Nc4ccc(OC)c(OC)c4)C3)n3ccccc23)c1` (centres unmarked) [Compound 4-1], with 100 to 500 nM.
On to `COc1cccc(-c2nc(C3CCCN(C(=O)Nc4ccccc4C)C3)n3ccccc23)c1` (centres unmarked) [Compound 3-4], for which the IC50 was 1000 to 3000 nM.
Under `COc1cccc(-c2nc([C@@H]3CCCN(C(=O)Nc4ccccc4C(=O)N(C)C)C3)n3ccccc23)c1` [Compound 5-33] stands 1000 to 3000 nM; under `COc1cccc(-c2nc([C@@H]3CCCN(C(=O)Nc4ccc5ncsc5c4)C3)n3ccccc23)c1` [Compound 5-65], below 100 nM; under `COc1ccccc1-c1nc(C2CCCN(C(=O)Nc3ccccc3F)C2)n2ccccc12` (centres unmarked) [Compound 11-3], 1000 to 3000 nM.
Regarding `COc1cccc(-c2nc([C@@H]3CCCN(C(=O)Nc4nc(C(C)C)ns4)C3)n3ccccc23)c1` [Compound 1-28], the IC50 lay in the range of 100 to 500 nM.
The compound `COc1cccc(-c2nc([C@@H]3CCCN(C(=O)NC4CCCCC4)C3)n3ccccc23)c1` [Compound 5-43] displayed a half-inhibitory concentration (IC50) of 100 to 500 nM.
Turning to `COc1cccc(-c2nc(C3CN(C(=O)Nc4cccc(N(C)C)c4)C3)n3ccccc23)c1` [Compound 23-1, N-(3-(dimethylamino)phenyl)-3-(1-(3-methoxyphenyl)imidazo[1,5-a]pyridin-3-yl)azetidine-1-carboxamide], the IC50 was above 3000 nM.
Under `CN(C)c1ccc(NC(=O)N2CCC[C@@H](c3nc(-c4cccc5c4OCO5)c4ccccn34)C2)cc1` [Compound 10-51] stands below 100 nM.
Under `O=C(Nc1ccccc1F)N1CCCC(c2nc(-c3cccc(F)c3)c3ccccn23)C1` (centres unmarked) [Compound 11-5] stands 1000 to 3000 nM; under `COc1cccc(-c2nc([C@@H]3CCCN(C(=O)Nc4nocc4C)C3)n3ccccc23)c1` [Compound 5-66], below 100 nM; under `COc1cccc(-c2nc([C@@H]3CCCN(C(=O)Nc4cccc(C(C)=O)c4)C3)n3ccccc23)c1` [Compound 5-15], below 100 nM.
Under `COc1cccc(-c2nc([C@@H]3CCCN(C(=O)Nc4cccc(C(=O)N(C)C)c4)C3)n3ccccc23)c1` [Compound 5-18] stands below 100 nM; under `CN(C)c1ccc(NC(=O)N2CCC[C@@H](c3nc(-c4ccccc4-c4ccccc4)c4ccccn34)C2)cc1` [Compound 10-20], above 3000 nM.
Take `COc1cccc(-c2nc(C3CCCN(S(=O)(=O)Cc4ccc(F)cc4)C3)n3ccccc23)c1` (centres unmarked) [Compound 16-6]: the IC50 lay in the range of 100 to 500 nM.
`COCc1cccc(-c2nc([C@@H]3CCCN(C(=O)Nc4ccc(N(C)C)cc4)C3)n3ccccc23)c1` [Compound 10-67] displayed an IC50 of 1000 to 3000 nM.
`COc1cccc(-c2nc([C@@H]3CCCN(C(=O)Nc4ccc(C(=O)N(C)C)cc4)C3)n3ccccc23)c1` [Compound 1-20] showed an IC50 below 100 nM.
Under `COc1cccc(-c2nc([C@@H]3CCCN(C(=O)Nc4ccc(-n5cccn5)cc4)C3)n3ccccc23)c1` [Compound 5-16] stands below 100 nM.
